Reference: the Bradley open melting point set (2014)
Counter-ions that a name gives are not always drawn.

Structure (SMILES) | melting point [°C]
Nc1cccc([N+](=O)[O-])c1 [3-nitroaniline] | 113
O=[N+]([O-])c1cccc(CO)c1 [3-nitrobenzyl alcohol] | 31
O=[N+]([O-])c1cccc(CCl)c1 [3-nitrobenzyl_chloride] | 47
O=[N+]([O-])c1cccc(-c2ccccc2)c1 [3-nitrobiphenyl] | 62
O=C(O)Cc1cccc([N+](=O)[O-])c1 [3-nitrophenylacetic acid] | 119
O=C(O)c1cccc([N+](=O)[O-])c1C(=O)O [3-nitrophthalic acid] | 212
Cc1cccc([N+](=O)[O-])c1 [3-nitrotoluene] | 16
O=C(OC1OC(=O)c2ccccc21)c1ccccc1 (centres undefined) [3-oxo-1,3-dihydro-2-benzofuran-1-yl benzoate] | 128
N#CCC(=O)c1cccs1 [3-oxo-3-(2-thienyl)propionitrile] | 134
CC12CCC(=O)CC1CCC1C2CCC2(C)C(OC=O)CCC12 (centres undefined) [3-oxoandrostan-17-yl formate] | 125
O=c1cc(-c2ccccc2)[nH]o1 [3-phenyl-5-isoxazolone] | 152
O=C(O)CCc1ccccc1 [3-phenylpropanoic_acid] | 49
O=C(O)CCc1ccccc1 [3-phenylpropionic acid] | 48.5
O=C(O)CCN1C(=O)c2ccccc2C1=O [3-phthalimidopropionic acid] | 152
Cc1ccc[n+]([O-])c1 [3-picoline n-oxide] | 38
Cc1cccnc1 [3-picoline] | -18
O=C(O)COc1cccnc1 [3-pyridyloxyacetic acid] | 211
O=S1(=O)CC=CC1 [3-sulfolene] | 65
CC(C)(C)c1cccc(O)c1 [3-tert-butylphenol] | 45
COc1ccccc1-c1ccc(C=C(C(C)=O)C(C)=O)o1 [3-{[5-(2-Methoxyphenyl)-2-furyl]methylene}pentane-2,4-dione] | 146
CC(=O)C1=CC[C@H]2[C@@H]3CC(=O)C4=C[C@@H](O)CC[C@]4(C)[C@H]3CC[C@]12C [3β-Hydroxypregna-4,16-diene-6,20-dione] | 169
O=C1OC2(c3ccccc31)c1ccc(O)c(Br)c1Oc1c2ccc(O)c1Br [4',5'-dibromofluorescein] | 272
CCC(=O)c1ccc(OCc2ccccc2)cc1 [4'-benzyloxypropiophenone] | 100
CC(=O)Nc1ccc(Cl)cc1 [4'-chloroacetanilide] | 179

Structure (SMILES) | melting point [°C]
O=C(/C=C/c1ccccc1)c1ccc(Cl)cc1 [4'-chlorochalcone] | 99
CCOc1ccc(NC(C)=O)cc1 [4'-ethoxyacetanilide] | 135
CC(=O)c1ccc(O)c(C(F)(F)F)c1 [4'-hydroxy-3'-(trifluoromethyl)acetophenone] | 176
Cc1ccc2oc(-c3ccc(O)cc3)cc(=O)c2c1 [4'-hydroxy-6-methylflavone] | 241
O=C(O)c1ccc(-c2ccc(O)cc2)cc1 [4'-hydroxybiphenyl-4-carboxylic acid] | 294
O=C(/C=C/c1ccccc1)c1ccc(O)cc1 [4'-hydroxychalcone] | 176
CC(=O)Nc1ccc(C(C)C)cc1 [4'-isopropylacetanilide] | 104
CC(=O)c1ccc(C)c([N+](=O)[O-])c1 [4'-methyl-3'-nitroacetophenone] | 60
CC(=O)c1ccc(Oc2ccccc2)cc1 [4'-phenoxyacetophenone] | 50
O=C(O)c1ccc(C(=O)OC(=O)c2ccc(C(=O)O)cc2C(=O)O)c(C(=O)O)c1 [4,4'-(Oxydicarbonyl)diisophthalic acid] | 165
CC(=O)CCc1ccc(CCC(C)=O)cc1 [4,4'-benzene-1,4-diyldibutan-2-one] | 56
Nc1ccc(NC(=O)c2ccc(N)cc2)cc1 [4,4'-diaminobenzanilide] | 201
Oc1ccc(-c2ccc(O)cc2)cc1 [4,4'-dihydroxybiphenyl] | 282
COc1ccc(Nc2ccc(OC)cc2)cc1 [4,4'-dimethoxydiphenylamine] | 102
CN(C)C(=S)NN [4,4-dimethyl-3-thiosemicarbazide] | 145
C/C=C\C(C)(C)C [4,4-dimethyl-cis-2-pentene] | -135
Clc1nc[nH]c1Cl [4,5-dichloroimidazole] | 181
COc1cc(CC(=O)O)c([N+](=O)[O-])cc1OC [4,5-dimethoxy-2-nitrophenylacetic acid] | 207
O=C1Nc2c(Cl)ccc(Cl)c2C1=O [4,7-dichloroisatin] | 248
Oc1ccc(-n2ccnc2)cc1 [4-(1-imidazolyl)phenol] | 206
CN(C)NC(=O)CCC(=O)O [4-(2,2-Dimethylhydrazino)-4-oxobutanoic acid] | 154
Cc1ccc(NC(=S)NN)c(C)c1 [4-(2,4-dimethylphenyl)-3-thiosemicarbazide] | 151
O=C1OC(c2ccccc2)=NC1=Cc1ccccc1F [4-(2-Fluoro-benzylidene)-2-phenyl-4H-oxazol-5-one] | 149
CC(C)(c1ccccc1)c1ccc(O)cc1 [4-(2-Phenylpropan-2-yl)phenol] | 71.5

Structure (SMILES) | melting point [°C]
O=C(O)/C=C/c1ccc(B(O)O)cc1 [4-(2-carboxyvinyl)benzeneboronic acid] | 193
Nc1ccc(-c2cccs2)cc1 [4-(2-thienyl)aniline] | 76
CCc1ccc(NC(=S)NN)cc1 [4-(4-ethylphenyl)-3-thiosemicarbazide] | 130
O=C(O)CCCc1ccc(F)cc1 [4-(4-fluorophenyl)butyric acid] | 45
COc1cc(CCC(C)=O)ccc1O [4-(4-hydroxy-3-methoxyphenyl)-2-butanone] | 41
COc1ccc(CCCC(=O)O)cc1 [4-(4-methoxyphenyl)butanoic acid] | 59
Nc1ccc(N2CCOCC2)cc1 [4-(4-morpholinyl)aniline] | 131
O=[N+]([O-])c1ccc(N2CCOCC2)cc1 [4-(4-nitrophenyl)morpholine] | 150
Cc1ccc(C=C2N=C(c3ccccc3)OC2=O)o1 [4-(5-Methyl-furan-2-ylmethylene)-2-phenyl-4H-oxazol-5-one] | 160
CN(C)c1ccc(C=O)cc1 [4-(Dimethylamino)benzaldehyd] | 75
Nc1ccc(N=Nc2ccccc2)cc1 [4-(Phenyldiazenyl)aniline] | 124
O=C(NC1CCC(O)CC1)OCc1ccccc1 (centres undefined) [4-(benzyloxycarbonylamino)cyclohexanol] | 163
N#CCc1ccc(B(O)O)cc1 [4-(cyanomethyl)benzeneboronic acid] | 198
CN(C)c1ccncc1 [4-(dimethylamino)pyridine] | 112
O=C(O)COc1ccc(CO)cc1 [4-(hydroxymethyl)phenoxyacetic acid] | 112
CSc1ccc(B(O)O)cc1 [4-(methylthio)benzeneboronic acid] | 210
OB(O)c1ccc(OC(F)(F)F)cc1 [4-(trifluoromethoxy)benzeneboronic acid] | 123
NNC(=O)c1ccc(C(F)(F)F)cc1 [4-(trifluoromethyl)benzhydrazide] | 119
O=C(O)c1ccc(C(F)(F)F)cc1 [4-(trifluoromethyl)benzoic acid] | 221
O=C(c1ccccc1)c1ccc(C(F)(F)F)cc1 [4-(trifluoromethyl)benzophenone] | 118
O=C(O)c1cnccc1C(F)(F)F [4-(trifluoromethyl)nicotinic acid] | 148
Nc1cc(Cl)c(O)c(Cl)c1 [4-Amino-2,6-dichlorophenol] | 168
Nc1ccc(C(=O)O)cc1 [4-Aminobenzoic Acid] | 188
Nc1ccc(C(=O)O)cc1 [4-Aminobenzoic acid] [listing 1 of 2 here] | 189

Structure (SMILES) | melting point [°C]
Nc1ccc(C(=O)O)cc1 [4-Aminobenzoic acid] [listing 2 of 2 here] | 188
Nc1ccc(O)cc1 [4-Aminophenol] | 189
Cc1cc(O)ccc1Br [4-Brom-3-methylphenol] | 64
CSc1nc(Cl)cc(N2CCCCC2)n1 [4-Chloro-2-(methylsulfanyl)-6-(piperidin-1-yl)pyrimidine] | 83.8
Nc1ccc(Cl)cc1 [4-Chloroaniline] | 72.5
Nc1ccc(Cl)cc1N [4-Chlorobenzene-1,2-diamine] | 68.5
O=C(Cl)c1ccc(Cl)cc1 [4-Chlorobenzoyl chloride] | 13
O=[N+]([O-])c1ccc(Cl)cc1 [4-Chloronitrobenzene] | 83.5
CCc1ccc(O)cc1 [4-Ethylphenol] | 43.5
N#Cc1ccc(O)c([N+](=O)[O-])c1 [4-Hydroxy-3-nitrobenzonitrile] | 141
COc1ccc(N)c(C)c1 [4-Methoxy-2-methylaniline] | 13.5
COc1ccc(C(=O)Cl)cc1 [4-Methoxybenzoyl chloride] | 22
COc1ccc(O)cc1 [4-Methoxyphenol] | 56
CC(=O)CC(C)C [4-Methylpentan-2-one] | -80
O=[N+]([O-])c1cc[n+]([O-])c2ccccc12 [4-Nitroquinoline 1-oxide] | 154
C=CC1CC=CCC1 (centres undefined) [4-Vinylcyclohexene] | -101
Nc1ccc(/N=C/c2cccc([N+](=O)[O-])c2)cc1 [4-[(E)-(3-Nitrobenzylidene)amino]aniline] | 148
CCCCc1ccc(/N=N/c2ccc(OC(=O)CC)cc2)cc1 [4-[(E)-(4-butylphenyl)diazenyl]phenyl propanoate] | 86
CC(=O)Nc1ccc(C(=O)O)cc1 [4-acetamidobenzoic acid] | 260
CC(=O)Nc1ccc(C(=O)O)cc1 [4-acetamidobenzoic_acid] | 259
CC(=O)Nc1ccc(O)cc1 [4-acetamidophenol] | 170
CC(=O)Nc1ccc(O)cc1 [4-acetylaminophenol] | 170
